Experimental data from patent publication US20260258085A1, “NOVEL DECAPEPTIDE AND USE THEREOF IN ANTIBACTERIAL” (METHYCURE BIOTECH CORP., priority 2023, published 2026).
Positions of bridges follow the written chain, without caps; N, C: chain ends. Non-standard residues stand in square brackets, D forms with d. Residues, ends and D or L forms follow the SMILES beside them. *: point of attachment. X1 = CC[C@H](C)CCCCC(=O)*; dDab = NCC[C@@H](N)C(=O)O; Dab = NCC[C@H](N)C(=O)O

Legend:
[1] = test system: E. coli; assay: Minimum inhibitory concentration test against common Gram-negative bacteria; assay type: cell-based, Escherichia coli; details: clinical isolate, 37° C., 16 hours, visual reading
Protocol: (§1) The pathogenic bacteria used for testing were all sourced from the intensive care unit of Gulou Hospital, isolated and cultured from clinical samples of patients with severe pneumonia. The strain species were identified by the Microbiology Laboratory of Gulou Hospital. The Gram-negative bacteria here include Escherichia coli, Pseudomonas aeruginosa, Acinetobacter baumannii, Klebsiella pneumoniae, etc.
(§2) A single colony of the test bacteria was inoculated into 5 ml of medium and cultured overnight to saturation. 10 μL of bacterial culture was aspirated and added to 990 μL of fresh medium, mixed well, to obtain a 100-fold diluted bacterial suspension. Then, 20 μL of the 100-fold diluted bacterial suspension was aspirated and added to 980 μL of fresh medium, mixed well. The bacteria obtained at this point were diluted 5000-fold.
(§3) The antimicrobial peptide was dissolved in Dimethyl sulfoxide (DMSO) to obtain a stock solution with a concentration of 12.8 mg/mL. Using DMSO, a two-fold serial dilution was performed for 10 consecutive times.
Add the 11 gradients of antimicrobial peptide diluted in step 1.1.2 to a 96-well plate, respectively, with the last well containing the same volume of DMSO. Then, add 48 μL of fresh medium to each well. Subsequently, add the 5000-fold diluted bacteria from step 1.1.1 to each well. Mix well. Incubate at 37° C. for 16 hours. […]

[2] = test system: polymyxin-resistant Acinetobacter baumannii; assay: Efficacy in neutropenic mice with thigh infection; assay type: in vivo; details: neutropenic CD1 mice, 20 mg/kg subcutaneous at 2, 8, 14, 24 hours post-infection, endpoint 24 hours
Description: All mice used in this part passed the ethical review of animal research at Nanjing University. To avoid the influence of the mouse's innate immune system on the intrinsic activity of the antimicrobial peptide, we constructed a neutropenic mouse model. This experiment used 6-week-old CD1 female mice (20-25 g). Mice were randomly housed in individually ventilated cages and maintained according to the standards of the Association for Assessment and Accreditation of Laboratory Animal Care International. The room was set to a 12-hour light cycle, temperature of 21° C., and humidity of 30%. […]
At 2, 8, 14, and 24 hours post-infection, mice were subcutaneously injected with 100 μL of vehicle (0.9% saline), Polymyxin E (Colistin) (20 mg/kg), or the antimicrobial peptide (20 mg/kg). […] All mice were closely monitored post-infection for signs of illness. Any abnormal clinical symptoms were recorded. […] Thigh muscles were processed aseptically, weighed, homogenized, and plated for CFU counts on MH agar containing 50 μg/mL gentamicin to quantify the bacterial burden. Efficacy was determined by the reduction in bacterial burden in the thighs compared to the […] control group. All graphical data were statistically analyzed using GraphPad Prism software (Prism v.9). Differences in burden between test and control groups were assessed using one-way analysis. […]

[3] = test system: P. aeruginosa containing the MCR-1 plasmid; assay type: cell-based, Pseudomonas aeruginosa; details: for Minimum Inhibitory Concentration, P. aeruginosa 1: strain 1, MCR-1 plasmid; for Minimum Inhibitory Concentration, P. aeruginosa 2: strain 2, MCR-1 plasmid
Protocol: (§4) The polymyxin-resistant pathogenic bacteria used for testing were all sourced from the hospital intensive care unit, isolated and cultured from clinical samples of patients with severe pneumonia. The strain species were identified by the hospital microbiology laboratory, and the presence of the mcr-1 gene in the strains was confirmed by high-throughput sequencing.
(§5) The culture procedure fully referenced Example 1.
(§6) Each bacterial species in the table was tested using 2 strains, denoted as “1” and “2” respectively.

[4] = test system: A. baumannii containing the MCR-1 plasmid; assay type: cell-based, Acinetobacter baumannii; details: for Minimum Inhibitory Concentration, A. baumannii 1: strain 1, MCR-1 plasmid; for Minimum Inhibitory Concentration, A. baumannii 2: strain 2, MCR-1 plasmid
Protocol: as §4, §5, §6

[5] = test system: Pseudomonas aeruginosa; assay: Minimum inhibitory concentration test against common Gram-negative bacteria; assay type: cell-based; details: clinical isolate, 37° C., 16 hours, visual reading
Protocol: as §1, §2, §3
(§7) Add the 11 gradients of antimicrobial peptide diluted in step 1.1.2 to a 96-well plate, respectively, with the last well containing the same volume of DMSO. Then, add 48 μL of fresh medium to each well. Subsequently, add the 5000-fold diluted bacteria from step 1.1.1 to each well. Mix well. Incubate at 37° C. for 16 hours. Visually determine the concentration at which bacterial growth begins to be inhibited; this is the minimum inhibitory concentration (MIC).

[6] = test system: Acinetobacter baumannii; assay: as above; assay type: cell-based; details: clinical isolate, 37° C., 16 hours, visual reading
Protocol: as §1, §2, §3, §7

[7] = test system: Klebsiella pneumoniae; assay: as above; assay type: cell-based; details: clinical isolate, 37° C., 16 hours, visual reading
Protocol: as §1, §2, §3, §7

[8] = test system: E. coli containing the MCR-1 plasmid; assay type: cell-based, Escherichia coli; details: for Minimum Inhibitory Concentration, E. coli 1: strain 1, MCR-1 plasmid; for Minimum Inhibitory Concentration, E. coli 2: strain 2, MCR-1 plasmid
Protocol: as §4, §5, §6

[9] = test system: K. pneumoniae containing the MCR-1 plasmid; assay type: cell-based, Klebsiella pneumoniae; details: for Minimum Inhibitory Concentration, K. pneumoniae 1: strain 1, MCR-1 plasmid; for Minimum Inhibitory Concentration, K. pneumoniae 2: strain 2, MCR-1 plasmid
Protocol: as §4, §5, §6

Structure (SMILES)	Minimum Inhibitory Concentration (MIC) [1]	bacterial burden in thighs (CFU) [2]	Minimum Inhibitory Concentration, P. aeruginosa 1 [3]	Minimum Inhibitory Concentration, P. aeruginosa 2 [3]	Minimum Inhibitory Concentration, A. baumannii 1 [4]	Minimum Inhibitory Concentration, A. baumannii 2 [4]	Minimum Inhibitory Concentration (MIC) [5]	Minimum Inhibitory Concentration (MIC) [6]	Minimum Inhibitory Concentration (MIC) [7]	Minimum Inhibitory Concentration, E. coli 1 [8]	Minimum Inhibitory Concentration, E. coli 2 [8]	Minimum Inhibitory Concentration, K. pneumoniae 1 [9]	Minimum Inhibitory Concentration, K. pneumoniae 2 [9]
CC[C@H](C)CCCCC(=O)N[C@@H](CCN)C(=O)N[C@H](C(=O)N[C@H](CCN)C(=O)N[C@H]1CCNC(=O)[C@H](CC(C)C)NC(=O)[C@H](CCN)NC(=O)[C@H](CCN)NC(=O)[C@H]([C@@H](C)CC)NC(=O)[C@@H](CC(C)C)NC(=O)[C@H](CCN)NC1=O)[C@@H](C)O [Antimicrobial Peptide, {6-ME-Octanoic acid}-{Dab}-{Thr}-{D-Dab}-{Dab}-{Dab}-{D-Leu}-{Ile}-{Dab}-{Dab}-{Leu}] (X1-[Dab]T[dDab][Dab][Dab][dL]I[Dab][Dab]L; lactam 4-C)	4 mg/L	significant reduction in colony-forming units (CFU)	2 µg/mL	1 µg/mL	4 µg/mL	2 µg/mL	4 mg/L	16 mg/L	8 mg/L	2 µg/mL	2 µg/mL	1 µg/mL	2 µg/mL
CC[C@H](C)CCCCC(=O)N[C@@H](CCN)C(=O)N[C@H](C(=O)N[C@@H](CCN)C(=O)N[C@H]1CCNC(=O)[C@H]([C@@H](C)O)NC(=O)[C@H](CCN)NC(=O)[C@H](CCN)NC(=O)[C@H](CC(C)C)NC(=O)[C@@H](CC(C)C)NC(=O)[C@H](CCN)NC1=O)[C@@H](C)O [Colistin, reference compound] (X1-[Dab]T[Dab][Dab][Dab][dL]L[Dab][Dab]T; lactam 4-C)		did not reduce the count of Acinetobacter baumannii	64 µg/mL	128 µg/mL	128 µg/mL	128 µg/mL				128 µg/mL	256 µg/mL	64 µg/mL	128 µg/mL
